Columns and labels:
PI3Kβ = molecular target: T1, PI3Kβ (Homo sapiens, UniProt P42338); assay: PI3K isoform profiling, PI3Kβ (PI3Kδ protocol); assay type: biochemical; conditions: for IC50: 10 dose IC50; for inhibition at 0.3 µM: compound 0.3 μM, read-out: PI3Kβ @ 0.3 μM (% Inh)
T1 construct: purchased Reaction Biology Corporation
Excerpt: (§1) PI3Kδ assay: The PIP3 product is detected by displacement of biotin-PIP3 from an energy transfer complex consisting of Europium labeled anti-GST monoclonal antibody, a GST-tagged pleckstrin homology (PH) domain, biotinylated PIP3 and Streptavidin-Allophycocyanin (APC). Excitation of Europium in the complex results in an energy transfer to the APC and a fluorescent emission at 665 nm. The PIP3 product formed by PI3-Kinase (h) activity displaces biotin-PIP3 from the complex resulting in a loss of energy transfer and thus a decrease in signal. This is a 3-step reaction: First, the kinase reaction with PIP2 substrate is carried out in the presence of ATP (10 μM), and the reaction is quenched with stop Solution, and then finally detect by adding Detection Mixture followed by incubation (10 min). Reaction procedure: 1) Prepare substrate in freshly prepared Reaction Buffer. 2) Deliver kinase into the substrate solution and gently mix. 3) Deliver compounds in 100% DMSO (1 μM) into the kinase reaction mixture by Acoustic technology (Echo550; nanoliter range), incubate for 10 min at RT. 4) Deliver ATP into the reaction mixture to initiate the reaction. 5) Incubate for 30 min at 30° C. 6) Quench the reaction with Stop Solution. 7) Add Detection Mixture, and incubate for overnight. 8) Measure HTRF: Ex=320 nm, ratio of Em=615 nm and Em=665 nm. The emission ratio is converted into μM PIP3 production based on PIP3 standard curves. The nonlinear regression to obtain the standard curve and IC50 values are performed using Graphpad Prism software. Assay Buffer: HEPES 50 mM (pH7.0), NaN3 0.02%, BSA 0.01%, Orthovanadate 0.1 mM, 1% DMSO. Detection buffer: HEPES 10 mM (pH7.0), BSA 0.02%, KF 0.16 M, EDTA 4 mM. Substrate: 10 μM PIP2 substrate (PI(4,5)P2).
(§2) Compounds of the invention were profiled in a 10 dose IC50 panel against PI3Kα, PI3Kβ, and PI3Kγ kinases, provided by Reaction Biology Corporation, applied to the PI3Kδ protocol provided in Example B1.

PI3Kα = molecular target: T2, PI3Kα (Homo sapiens, UniProt P42336); assay: PI3K isoform profiling, PI3Kα (PI3Kδ protocol); assay type: biochemical; conditions: for IC50: 10 dose IC50; for inhibition at 0.3 µM: compound 0.3 μM, read-out: PI3Kα @ 0.3 μM (% Inh)
T2 construct: purchased Reaction Biology Corporation
Excerpt: as §1, §2

BTK = molecular target: T3, BTK (Homo sapiens, UniProt Q06187); assay: BTK kinase profiling, HotSpot radiometric assay (Reaction Biology); assay type: biochemical; conditions: for inhibition at 0.1 µM: compound 0.1 μM, read-out: BTK @ 0.1 μM (% Inh); for inhibition at 0.1 µM / inhibition at 1 µM / inhibition at 0.01 µM: ATP 10 μM; for inhibition at 1 µM: compound 1 μM, read-out: BTK @ 1 μM (% Inh); for inhibition at 0.01 µM: compound 0.01 μM, read-out: BTK @ 0.01 μM (% Inh)
T3 construct: purchased Reaction Biology Corporation
Method: (§3) Compounds of the invention were profiled in a 10 dose IC50 panel against BTK and PI3Kδ, both provided by Reaction Biology Corporation.
BTK assay: In vitro profiling protein kinases was performed using the “HotSpot” assay platform. Briefly, specific kinase/substrate pairs along with required cofactors were prepared in reaction buffer. Compounds were prepared as 10 mM stock solutions in DMSO. Compounds were delivered into the reaction, followed 15-20 minutes later by addition of a mixture of ATP (Sigma, St. Louis Mo.) and ^33P ATP (Perkin Elmer, Waltham Mass.) to a final concentration of 10 μM. Reactions were carried out at RT for 120 min, followed by spotting of the reactions onto P81 ion exchange filter paper (Whatman Inc., Piscataway, N.J.). Unbound phosphate was removed by extensive washing of filters in 0.75% Phosphoric acid. […] ICso values and curve fits were obtained using Prism (GraphPad Software). Buffer Conditions: 20 mM Hepes (pH 7.5), 10 mM MgCl2, 1 mM EGTA, 0.02% Brij35, 0.02 mg/mL BSA, 0.1 mM Na3VO4, 2 mM DTT, 1% DMSO.

[1] = tested on: CD69+B220+ cells (mouse spleen cells); assay: B cell activation assay (IgD-stimulated CD69 on B220+ spleen cells, FACS); assay type: cell-based; conditions: 100 nM test compound, 30 min, then IgD 3 μg/mL 4 h, read-out: CD69 @ 100 nM (% Inh)
Method: 1 Female mouse approximately 2 months old was euthanized with CO2 and the spleen removed. The tissue was homogenized with a polished glass microscope slide. The cells were collected in 5 mL complete medium (RPMI+10% FBS+pen/strep), placed in a 15 mL falcon tube and centrifuged at 500×g for 5 min. The supernatant was discarded and the pellet was resuspended in 3 mL of ACK lysis buffer (NH4Cl 0.17M, KHCO3 10 mM, EDTA-Na2 0.1 mM, pH 7.2), incubated at 37° C. for 5 min. 2 mL complete medium was added and the mixture centrifuged at 500×g for 5 min. The supernatant was discarded and the pellet resuspended in 1 mL complete medium. The mixture was passed through a […] cell strainer and collect in 50 mL falcon tube. Enough medium was added to have a total of 10 mL. The cells were counted and seeded in 24 or 48-well plate in 1 mL complete medium at 10^6 cells/mL. The plate was placed in a 37° C. incubator for 15 min. The cells were treated for 30 min at 37° C. with 100 nM test compound dissolved in 100% DMSO. 3 μL IgD (Accurate chemical and scientific corp.) was added at a final concentration of 3 μg/mL and the mixture incubated at 37° C. for 4 h. The cells were collected in 1.5 mL eppendorf tubes, centrifuged at 500×g for 5 min and then resuspended in 100 μL of PBS+2% FBS. The following antibodies were added: α-B220 PE (pharmingen #553090), α-CD69 APC (pharmingen #60689), live/dead fixable aqua dead cell stain kit (life technologies # L34957) all at 1:300, and the mixture incubated for 15 min at 4° C. in the dark. To this was added 900 μL of PBS+2% FBS and the mixture centrifuged at 500×g for 5 min. The supernatant was removed and the pellet resuspended in 300 μL of PBS+2% FBS and mixed well. The mixture was transferred to a cytometer tube. The samples were run in the FACS Canto II cytometer and quantified by the number of CD69+B220+ cells as a percentage of the total number of B220+ alive cells.

PI3Kδ = molecular target: T4, PI3Kδ (Homo sapiens, UniProt O00329); assay: PI3Kδ kinase profiling, HTRF PIP3 displacement assay (Reaction Biology); assay type: biochemical; conditions: for inhibition at 1 µM: compound 1 μM, ATP 10 μM, read-out: PI3Kδ @ 1 μM (% Inh)
T4 construct: purchased Reaction Biology Corporation
Excerpt: as §3, §1

T4 sequence (O00329 whole entry): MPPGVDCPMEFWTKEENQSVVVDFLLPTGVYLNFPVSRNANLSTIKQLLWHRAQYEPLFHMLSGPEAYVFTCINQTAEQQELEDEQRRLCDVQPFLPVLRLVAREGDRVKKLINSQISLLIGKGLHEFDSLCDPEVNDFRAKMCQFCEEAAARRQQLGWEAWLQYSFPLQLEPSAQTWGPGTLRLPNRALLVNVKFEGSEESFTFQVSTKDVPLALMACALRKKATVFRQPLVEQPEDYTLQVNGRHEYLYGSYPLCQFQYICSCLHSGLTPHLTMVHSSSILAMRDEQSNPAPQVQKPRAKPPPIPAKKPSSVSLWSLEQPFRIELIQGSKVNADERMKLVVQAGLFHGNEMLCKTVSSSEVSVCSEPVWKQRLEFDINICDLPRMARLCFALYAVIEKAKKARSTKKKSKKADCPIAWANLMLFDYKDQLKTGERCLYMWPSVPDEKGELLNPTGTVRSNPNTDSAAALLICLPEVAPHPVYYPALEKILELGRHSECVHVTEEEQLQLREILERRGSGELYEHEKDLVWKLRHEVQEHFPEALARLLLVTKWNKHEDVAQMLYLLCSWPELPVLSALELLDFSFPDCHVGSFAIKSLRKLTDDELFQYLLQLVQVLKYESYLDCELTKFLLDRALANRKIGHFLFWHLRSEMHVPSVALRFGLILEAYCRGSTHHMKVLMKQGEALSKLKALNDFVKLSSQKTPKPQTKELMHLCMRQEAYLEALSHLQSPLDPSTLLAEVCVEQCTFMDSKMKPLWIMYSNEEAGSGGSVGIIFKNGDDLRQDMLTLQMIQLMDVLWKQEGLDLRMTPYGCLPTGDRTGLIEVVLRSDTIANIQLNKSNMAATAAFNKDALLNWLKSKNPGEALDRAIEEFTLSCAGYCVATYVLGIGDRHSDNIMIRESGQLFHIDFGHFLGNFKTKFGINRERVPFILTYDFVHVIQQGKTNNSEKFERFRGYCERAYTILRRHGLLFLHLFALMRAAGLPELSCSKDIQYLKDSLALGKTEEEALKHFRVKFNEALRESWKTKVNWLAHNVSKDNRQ
T4 sequence (P27986 whole entry partner): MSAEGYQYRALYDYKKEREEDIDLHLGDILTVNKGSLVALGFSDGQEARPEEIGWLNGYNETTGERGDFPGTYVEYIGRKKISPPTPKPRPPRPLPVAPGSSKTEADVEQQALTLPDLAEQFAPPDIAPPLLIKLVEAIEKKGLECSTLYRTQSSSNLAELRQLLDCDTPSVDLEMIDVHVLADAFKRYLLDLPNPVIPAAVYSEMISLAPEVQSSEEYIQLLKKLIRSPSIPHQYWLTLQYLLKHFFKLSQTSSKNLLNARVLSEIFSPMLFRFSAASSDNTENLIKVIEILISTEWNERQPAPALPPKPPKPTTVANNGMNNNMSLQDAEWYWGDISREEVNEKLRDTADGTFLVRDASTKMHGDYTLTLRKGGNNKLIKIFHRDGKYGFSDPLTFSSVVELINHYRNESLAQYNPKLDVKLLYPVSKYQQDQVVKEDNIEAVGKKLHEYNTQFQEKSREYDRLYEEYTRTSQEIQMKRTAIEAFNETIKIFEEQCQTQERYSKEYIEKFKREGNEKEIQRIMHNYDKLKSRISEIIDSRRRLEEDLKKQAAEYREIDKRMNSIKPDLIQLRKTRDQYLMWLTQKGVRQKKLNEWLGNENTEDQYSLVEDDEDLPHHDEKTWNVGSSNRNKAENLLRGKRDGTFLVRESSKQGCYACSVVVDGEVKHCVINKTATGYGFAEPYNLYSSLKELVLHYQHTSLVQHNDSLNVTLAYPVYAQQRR
T2 sequence (P42336 whole entry, canonical isoform): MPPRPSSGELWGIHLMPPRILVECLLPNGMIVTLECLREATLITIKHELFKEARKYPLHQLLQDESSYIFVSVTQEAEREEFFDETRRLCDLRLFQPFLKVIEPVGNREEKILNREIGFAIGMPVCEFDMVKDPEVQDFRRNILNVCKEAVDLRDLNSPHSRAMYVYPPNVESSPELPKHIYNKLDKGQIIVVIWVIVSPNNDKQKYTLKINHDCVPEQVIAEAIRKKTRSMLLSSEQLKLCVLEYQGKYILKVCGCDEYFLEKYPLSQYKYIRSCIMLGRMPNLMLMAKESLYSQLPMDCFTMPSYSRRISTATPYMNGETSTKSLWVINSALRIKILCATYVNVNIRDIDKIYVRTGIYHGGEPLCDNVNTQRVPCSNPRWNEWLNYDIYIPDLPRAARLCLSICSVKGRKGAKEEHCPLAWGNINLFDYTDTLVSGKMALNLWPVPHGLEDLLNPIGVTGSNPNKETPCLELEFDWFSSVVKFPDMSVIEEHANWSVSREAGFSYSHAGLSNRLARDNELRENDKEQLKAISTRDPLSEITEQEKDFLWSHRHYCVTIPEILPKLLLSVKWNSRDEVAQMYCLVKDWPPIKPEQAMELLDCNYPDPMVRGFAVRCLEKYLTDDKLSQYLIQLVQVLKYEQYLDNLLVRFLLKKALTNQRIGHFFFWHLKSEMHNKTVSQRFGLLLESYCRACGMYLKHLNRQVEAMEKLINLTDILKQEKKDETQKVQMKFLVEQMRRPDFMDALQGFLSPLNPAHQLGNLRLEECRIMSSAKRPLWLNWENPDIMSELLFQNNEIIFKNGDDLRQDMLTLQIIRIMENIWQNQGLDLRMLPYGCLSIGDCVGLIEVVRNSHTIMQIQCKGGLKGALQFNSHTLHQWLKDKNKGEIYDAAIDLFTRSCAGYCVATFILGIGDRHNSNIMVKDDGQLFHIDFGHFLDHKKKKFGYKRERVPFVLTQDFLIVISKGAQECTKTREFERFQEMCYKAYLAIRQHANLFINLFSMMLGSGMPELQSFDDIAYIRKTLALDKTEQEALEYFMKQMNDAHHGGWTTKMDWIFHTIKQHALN
T2 sequence (P27986 whole entry partner, canonical isoform): as the sequence (P27986 whole entry partner) above
T1 sequence (P42338 whole entry, canonical isoform): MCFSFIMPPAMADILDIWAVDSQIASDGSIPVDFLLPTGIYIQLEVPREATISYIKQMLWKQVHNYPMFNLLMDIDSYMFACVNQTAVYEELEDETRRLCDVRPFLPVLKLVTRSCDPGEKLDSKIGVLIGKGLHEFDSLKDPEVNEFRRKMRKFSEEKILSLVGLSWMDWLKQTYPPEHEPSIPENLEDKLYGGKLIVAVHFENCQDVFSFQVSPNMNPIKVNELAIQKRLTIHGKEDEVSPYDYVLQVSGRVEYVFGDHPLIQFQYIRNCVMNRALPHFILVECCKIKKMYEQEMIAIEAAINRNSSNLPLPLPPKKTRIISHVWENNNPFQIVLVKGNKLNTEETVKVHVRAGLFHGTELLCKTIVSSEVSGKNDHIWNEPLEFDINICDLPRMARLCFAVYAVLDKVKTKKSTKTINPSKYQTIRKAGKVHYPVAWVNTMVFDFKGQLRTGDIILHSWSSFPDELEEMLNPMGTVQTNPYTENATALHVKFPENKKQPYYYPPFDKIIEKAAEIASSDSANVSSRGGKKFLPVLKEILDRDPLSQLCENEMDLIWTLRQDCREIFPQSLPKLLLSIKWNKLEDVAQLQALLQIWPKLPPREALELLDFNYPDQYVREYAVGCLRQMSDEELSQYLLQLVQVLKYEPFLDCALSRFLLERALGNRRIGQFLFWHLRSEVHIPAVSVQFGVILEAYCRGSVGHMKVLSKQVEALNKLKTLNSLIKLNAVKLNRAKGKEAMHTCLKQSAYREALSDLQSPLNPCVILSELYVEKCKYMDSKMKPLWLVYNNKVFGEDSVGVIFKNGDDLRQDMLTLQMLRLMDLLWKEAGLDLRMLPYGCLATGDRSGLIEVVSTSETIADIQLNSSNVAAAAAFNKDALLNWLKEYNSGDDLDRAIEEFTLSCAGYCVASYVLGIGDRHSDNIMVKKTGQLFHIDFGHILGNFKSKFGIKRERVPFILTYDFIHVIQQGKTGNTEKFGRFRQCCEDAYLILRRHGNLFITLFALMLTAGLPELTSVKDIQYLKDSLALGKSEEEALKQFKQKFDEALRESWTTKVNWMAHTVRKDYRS
T1 sequence (P27986 whole entry partner, canonical isoform): as the sequence (P27986 whole entry partner) above
T3 sequence (Q06187 whole entry): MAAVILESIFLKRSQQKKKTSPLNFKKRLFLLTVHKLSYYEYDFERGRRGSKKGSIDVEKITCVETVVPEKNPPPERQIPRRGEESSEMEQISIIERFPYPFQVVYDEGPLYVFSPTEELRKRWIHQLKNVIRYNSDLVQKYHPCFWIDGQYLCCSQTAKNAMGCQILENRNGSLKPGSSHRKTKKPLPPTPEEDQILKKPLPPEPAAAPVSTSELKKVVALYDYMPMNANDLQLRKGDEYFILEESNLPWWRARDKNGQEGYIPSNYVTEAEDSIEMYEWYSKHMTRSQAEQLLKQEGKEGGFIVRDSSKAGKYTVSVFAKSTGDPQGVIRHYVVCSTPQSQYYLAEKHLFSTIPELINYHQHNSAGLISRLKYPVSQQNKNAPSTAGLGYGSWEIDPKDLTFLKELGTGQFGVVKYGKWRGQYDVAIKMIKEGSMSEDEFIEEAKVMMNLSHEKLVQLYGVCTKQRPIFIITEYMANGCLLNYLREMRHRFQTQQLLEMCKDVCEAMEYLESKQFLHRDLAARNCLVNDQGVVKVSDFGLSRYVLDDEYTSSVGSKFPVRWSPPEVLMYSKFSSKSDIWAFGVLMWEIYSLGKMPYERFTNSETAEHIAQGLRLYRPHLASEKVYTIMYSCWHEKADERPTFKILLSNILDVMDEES

| IC50 (PI3Kβ) [nM] | inhibition at 0.3 µM (PI3Kβ) [%] | IC50 (PI3Kα) [nM] | inhibition at 0.3 µM (PI3Kα) [%] | IC50 (BTK) [nM] | inhibition at 0.1 µM (BTK) [%] | IC50 (PI3Kδ) [nM] | inhibition at 1 µM (BTK) [%] | inhibition at 1 µM (PI3Kδ) [%] | inhibition at 0.01 µM (BTK) [%] | Compound | inhibition at 0.1 µM [1] [%] |
| --- | --- | --- | --- | --- | --- | --- | --- | --- | --- | --- | --- |
| – | 41 | 3220 | – | 7.4 | 93.8 | 32 | 97.2 | 82.4 | – | C=CC(=O)N(CCn1nc(-c2cc(O)cc(F)c2)c2c(N)ncnc21)Cc1ccccc1F [Compound 11, N-[2-[4-amino-3-(3-fluoro-5-hydroxy-phenyl)pyrazolo[3,4-d]pyrimidin-1-yl]ethyl]-N-[(2-fluorophenyl)methyl]prop-2-enamide] | -23.7 ± 39.7 |
| – | 31.3 | 869 | – | 0.4 | 94.4 | 9.7 | – | – | 62.8 | C=CC(=O)N(CCn1nc(-c2cc(O)cc(F)c2)c2c(N)ncnc21)Cc1ccc(Cl)cc1 [Compound 12, N-{2-[4-amino-3-(3-fluoro-5-hydroxyphenyl)-1H-pyrazolo[3,4-d]pyrimidin-1-yl]ethyl}-N-[(4-chlorophenyl)methyl]prop-2-enamide] | -44.7 ± 53.6 |
| – | 16.3 | 504 | – | 3 | 95.4 | 12.8 | 98.3 | 89 | – | C=CC(=O)N(CCn1nc(-c2cc(O)cc(F)c2)c2c(N)ncnc21)Cc1ccc(F)cc1 [Compound 10, N-{2-[4-amino-3-(3-fluoro-5-hydroxyphenyl)-1H-pyrazolo [3,4-d]pyrimidin-1-yl]ethyl}-N-[(4-fluorophenyl)methyl]prop-2-enamide] | -23.7 ± 39.7 |
| – | 25.2 | 290 | – | 2.7 | 93.8 | 12.4 | – | – | 63.4 | C=CC(=O)N(CCn1nc(-c2cc(O)c(F)c(F)c2)c2c(N)ncnc21)Cc1ccc(Cl)cc1 [Compound 16, N-{2-[4-amino-3-(3,4-difluoro-5-hydroxyphenyl)-1H-pyrazolo[3,4-d]pyrimidin-1-yl]ethyl}-N-[(4-chlorophenyl)methyl]prop-2-enamide] | -44.8 ± 29.4 |

Continued, compound first:

| Compound | IC50 (PI3Kβ) [nM] | inhibition at 0.3 µM (PI3Kβ) [%] | IC50 (PI3Kα) [nM] | inhibition at 0.3 µM (PI3Kα) [%] | IC50 (BTK) [nM] | inhibition at 0.1 µM (BTK) [%] | IC50 (PI3Kδ) [nM] | inhibition at 1 µM (BTK) [%] | inhibition at 1 µM (PI3Kδ) [%] | inhibition at 0.01 µM (BTK) [%] | inhibition at 0.1 µM [1] [%] |
| --- | --- | --- | --- | --- | --- | --- | --- | --- | --- | --- | --- |
| C=CC(=O)N(CCn1nc(-c2cc(O)cc(F)c2)c2c(N)ncnc21)c1ccccc1 [Compound 2, N-(2-(4-amino-3-(3-fluoro-5-hydroxyphenyl)-1H-pyrazolo[3,4-d]pyrimidin-1-yl)ethyl)-N-phenylacrylamide] | 5280 | 30.4 | 4210 | 20.1 | 3.9 | 94.1 | 51.6 | – | – | – | -114 ± 72.2 |
| Nc1ncnc2c1c(-c1cc(O)cc(F)c1)nn2CCNc1ccccc1 [Compound 1, 3-(4-amino-1-(2-(phenylamino)ethyl)-1H-pyrazolo [3,4-d]pyrimidin-3-yl)-5-fluorophenol] | – | 62 | – | 50.5 | 167 | – | 10 | – | – | – | 74.5 ± 6.72 |
| C=CC(=O)N(CCn1nc(-c2cc(O)cc(F)c2)c2c(N)ncnc21)Cc1ccccc1 [Compound 5, N-(2-(4-amino-3-(3-fluoro-5-hydroxyphenyl)-1H-pyrazolo[3,4-d]pyrimidin-1-yl)ethyl)-N-benzylacrylamide] | 3410 | 45.8 | 3320 | 26.4 | 3.7 | 94 | 13 | – | – | – | 12.5 ± 22.3 |
